# According to patent US20100022620A1, “EPITOPE REDUCTION THERAPY” (priority 2006, published 2010):
# pIC50: −log10 of the molar value.
# Columns and labels:
# Neuroblastoma NB1 cells = assay: Fluorescence microscopy of sera binding to Neuroblastoma NB1 cells; assay type: cell-based; settings: NB1 cells treated with various concentrations; some GBS serum samples such as patient 7
# Source text: This non-specific staining hinders interpretation of results when using whole sera. Cell staining indicated the necessity for a technique which provides isolated antigen, thereby reducing the potential of non-specific staining.
# GSL biosynthesis = settings: compared with NB-DNJ; cited from earlier work
# RAW cells [1] = assay: Orcinol-stained TLC of GM1 in RAW cell extract; assay type: cell-based; settings: for pIC50: GM1 in RAW cells, stated only as comparable to 50 μM, read-out: apparent IC50 estimated from orcinol stained RAW TLC; for levels of GM1 in RAW cells: orcinol staining, 0 to 1000 μM drug (FIG. 15)
# Source text: A third TLC plate (FIG. 15) with standardised amounts of sample was run in an identical manner to those in FIG. 14 but stained with orcinol.
# [2] = mouse models of GSL storage diseases; cited from earlier work
# [3] = cited from earlier work; for CNS penetration: mouse, in vivo; for neurological side effects: treatment of adult mice
# RAW cells [4] = assay: TLC immuno-overlay of RAW cell ganglioside extract with GBS patient serum (anti-GM1 binding); assay type: cell-based; settings: for GBS patient sera antibody binding to GM1: RAW cells grown in 0 to 1000 μM drug, patient '8' serum (FIG. 13)
# Procedure: GSL was extracted from RAW cells incubated in a range of NB-DNJ and NB-DGJ concentrations from 0 to 1 mM and separated by TLC. Extract was run parallel to purified GM1 on duplicate TLC plates. Immuno-overlay was carried out using patient ‘8’ and control ‘4’ sera.
# The procedure was then repeated with standardisation of the amount of material loaded onto the gel (FIG. 14). This was calculated using the bicinchoninic acid protein quantification method (Chan et al., 1993). […] No binding was observed when the overlay was conducted with control serum, indicating specificity of this effect to GBS auto-antibody.
# [5] = tested on: total ganglioside and GM1 content; settings: cerebrum-brainstem; cited from earlier work
# PC12 cells [6] = assay: HPLC analysis of PC12 gangliosides; assay type: cell-based; settings: for ganglioside depletion in PC12 cells: HPLC (FIG. 17)
# Procedure: In the absence of detectable binding by TLC immuno-overlay, a new technique was necessary to analyse the identity and relative abundance of gangliosides present on PC12 cells. To this end, HPLC was carried out on ganglioside extracted from PC12 cells grown in a range of NB-DGJ and NB-DNJ concentrations from 0-1 mM.
# GSL levels = settings: mice, cited from earlier work
# PC12 cells [7] = assay: Immunocytology: anti-GT1b antibody binding to PC12 cells by flow cytometry; assay type: cell-based; settings: for reduction in anti-ganglioside antibody binding: 3 days of exposure, anti-GT1b mAb
# Procedure: (§1) PC12 cells were grown under standard undifferentiated conditions with and without a range of NB-DNJ concentrations (1, 5, 10, 50, 100 and 500 μM). Cells were grown in flasks for immunocytology and analytical studies on ganglioside levels and also in 96-well tissue culture plates for antibody mediated lysis studies. Time points examined were day 0, 1, 2 and 3, and 2 and 3 days post-compound wash out.
# PC12 cells were grown in DMEM containing 7.5% FCS and 7.5% horse serum. The medium was supplemented with 0, 1, 5, 10, 50, 100 or 500 μM NB-DNJ and the cells cultured for 3 days. The media was then replaced with DMEM without NB-DNJ and the cells cultured for a further 3 days. At days 0, 1, 2, 3 and days 2 and 3 post NB-DNJ treatment, cells were harvested and ganglioside levels assessed by analysing anti-ganglioside antibody binding using flow cytometry. Briefly, 1×10^5 cells were stained with 10 μg/ml of a murine anti-GT1b mAb for 1 hour at room temperature. Binding was then detected by a FITC labelled antibody with specificity for mouse IgG. Binding is expressed in FIGS. 2 and 3 as the mean fluorescence of triplicate experiments. To allow any reduction in ganglioside levels to be clearly visualised at each time point, the mean fluorescence is shown as a percentage of that at day 0. Error bars indicate sem.
# PC12 cells [8] = assay: Anti-ganglioside antibody / complement-mediated lysis of PC12 cells (LDH release); assay type: cell-based
# Procedure: as §1
# The consequences of reduced anti-ganglioside antibody binding treated cells were evaluated by measuring antibody-mediated cytotoxicity (FIGS. 4 and 5). Thus, cells from each day and NB-DNJ concentration were also assayed for anti-ganglioside antibody-mediated cytotoxicity. Lysis studies were conducted using anti-ganglioside antibodies in conjunction with fresh human serum as a source of complement. Cell viability was quantitated by colourimetric assay measuring LDH release upon cell lysis.
# After coating onto 96 well tissue culture plates (5×10^3 cells/well), the cells were incubated with anti-GT1b antibody at 10 μg/ml for 1 hour at room temperature. Then, 10% human serum was added as a source of complement for a further hour at 37° C. Complement-mediated cell lysis was measured using a Cytotox 96 cytotoxic assay kit (Promega), following the instructions supplied. LDH released upon cell lysis was measured by a colourimetric assay; a tetrazolium salt is converted into a red formazan product. […]
# PC12 cells [9] = assay: HPLC analysis of GSL levels in NB-DNJ treated PC12 cells; assay type: cell-based; settings: day 3, PC12 cells, preliminary analysis
# Procedure: as §1
# HPLC analysis of the treated and untreated cells was performed to determine the extent of GSL depletion that results from NB-DNJ treatment.
# sialyltransferase = settings: cited from earlier work
# [10] = target: T1, human α-1,3-fucosyltransferase V (Homo sapiens, UniProt Q11128); settings: in the presence of guanosine diphosphate (GDP); cited from earlier work
# T1 sequence (Q11128 1-374): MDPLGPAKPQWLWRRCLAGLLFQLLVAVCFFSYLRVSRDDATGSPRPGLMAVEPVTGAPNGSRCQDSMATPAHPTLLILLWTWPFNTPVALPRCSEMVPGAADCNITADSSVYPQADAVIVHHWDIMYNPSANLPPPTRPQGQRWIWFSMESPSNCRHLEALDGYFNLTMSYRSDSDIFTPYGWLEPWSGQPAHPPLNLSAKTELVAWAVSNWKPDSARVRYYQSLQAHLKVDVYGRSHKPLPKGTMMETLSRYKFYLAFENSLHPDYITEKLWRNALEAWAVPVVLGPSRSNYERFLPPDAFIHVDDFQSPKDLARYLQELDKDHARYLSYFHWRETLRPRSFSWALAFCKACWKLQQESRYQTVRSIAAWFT
# rat recombinant α-2,3-ST = settings: cited from earlier work
# rat recombinant α-2,6-ST = target: T2, rat recombinant α-2,6-ST (Rattus norvegicus, UniProt P13721); settings: cited from earlier work
# T2 sequence (P13721 1-403): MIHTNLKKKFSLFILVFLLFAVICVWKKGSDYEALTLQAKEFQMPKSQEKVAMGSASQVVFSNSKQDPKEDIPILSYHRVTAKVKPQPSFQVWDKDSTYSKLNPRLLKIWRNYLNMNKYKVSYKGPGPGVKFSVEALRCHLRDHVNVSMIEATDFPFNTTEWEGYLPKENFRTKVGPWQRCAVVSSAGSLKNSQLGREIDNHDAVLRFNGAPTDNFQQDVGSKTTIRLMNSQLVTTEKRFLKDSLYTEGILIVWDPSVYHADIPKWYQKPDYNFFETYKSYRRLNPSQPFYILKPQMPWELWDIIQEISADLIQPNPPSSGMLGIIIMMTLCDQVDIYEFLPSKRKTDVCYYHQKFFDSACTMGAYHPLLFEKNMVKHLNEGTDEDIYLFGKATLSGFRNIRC
# [11] = RAW cells, standardised amount of material (FIG. 14)
molecule,measurement,setting,value
"CCCCN1C[C@H](O)[C@@H](O)[C@@H](O)[C@H]1CO [NB-DGJ, N-butyldeoxygalactonojirimycin]",fluorescence of serum binding on drug-treated cells,Neuroblastoma NB1 cells,decrease in fluorescence
same,inhibition of GSL biosynthesis,GSL biosynthesis,comparably to NB-DNJ
same,pIC50,RAW cells [1],~4.30
same,levels of GM1 in RAW cells,RAW cells [1],drug dependent decrease
same,tolerability,[2],very well tolerated
same,CNS penetration,[3],penetrate the CNS
same,neurological side effects,[3],not to cause neurological side effects
same,GBS patient sera antibody binding to GM1,RAW cells [4],drug dependent decrease
same,"drug dependent decrease in antibody binding to GM1, comparison of the two drugs","RAW cells [4]; RAW cells, FIG. 13",slightly more efficient
same,"decrease of patient anti-GM1 antibody binding, comparison of the two drugs",RAW cells [4]; [11],more pronounced
same,patient anti-GM1 antibody binding as drug concentration was increased,RAW cells [4]; [11],progressively lower levels
same,total ganglioside and GM1 content,[5],marked reduction
same,ganglioside depletion in PC12 cells,PC12 cells [6]; 50 μM,significant ganglioside depletion
same,ganglioside depletion in PC12 cells,PC12 cells [6]; 1 mM,Further depletion
same,"inhibitor potency, comparison of the two drugs","PC12 cells [6]; PC12 cells, HPLC",more a potent inhibitor
"CCCCN1C[C@H](O)[C@@H](O)[C@H](O)[C@H]1CO [NB-DNJ, N-butyldeoxynojirimycin]",fluorescence of serum binding on drug-treated cells,Neuroblastoma NB1 cells,decrease in fluorescence
same,pIC50,RAW cells [1],~4.30
same,levels of GM1 in RAW cells,RAW cells [1],drug dependent decrease
same,time at which effect on GSL levels stabilizes,GSL levels,10 days
same,GSL levels,GSL levels; within a day of treatment,measurable decrease
same,CNS penetration,[3],penetrate the CNS
same,neurological side effects,[3],not to cause neurological side effects
same,anti-ganglioside antibody binding,PC12 cells [7]; 50 μM and higher concentrations,significant time dependent reduction
same,reduction in anti-ganglioside antibody binding,PC12 cells [7]; 100 μM,70%
same,reduction in anti-ganglioside antibody binding,PC12 cells [7]; 500 μM,90%
same,anti-ganglioside antibody binding after wash out of the compound,PC12 cells [7]; by day 3 post wash out,returning to the levels of untreated cells
same,GBS patient sera antibody binding to GM1,RAW cells [4],drug dependent decrease
same,patient anti-GM1 antibody binding as drug concentration was increased,RAW cells [4]; [11],progressively lower levels
same,protection from complement mediated lysis,PC12 cells [8]; 100 uM,approximately 60%
same,protection from complement mediated lysis,PC12 cells [8]; 500 uM,~80%
same,ganglioside depletion in PC12 cells,PC12 cells [6]; 50 μM,significant ganglioside depletion
same,ganglioside depletion in PC12 cells,PC12 cells [6]; 1 mM,Further depletion
same,GSL levels,PC12 cells [9],10-20 % of control
C[C@@H]1O[C@@H](O[C@H]2[C@H](O[C@H]3[C@H](O[C@H]4CC[C@@]5(C)[C@@H](CC[C@]6(C)[C@@H]5CC=C5[C@@H]7CC(C)(C)C[C@@H](O)[C@]7(C)CC[C@]56C)[C@@]4(C)CO)O[C@H](C(=O)O)[C@@H](O)[C@@H]3O)O[C@H](CO)[C@H](O)[C@@H]2O)[C@H](O)[C@H](O)[C@H]1O [Soyasaponin I],sialyltransferase inhibition,sialyltransferase,potent and specific
CCCO[C@H]1O[C@H](CO)[C@@H](O[C@@H]2O[C@H](CO)[C@H](O)[C@H](O)[C@H]2O)[C@H](OCCN2C(C)C(O)C(O)C(O)C2CO)[C@H]1NC(C)=O (stereo partly drawn) [propyl 2-acetamido-2-deoxy-4-O-(β-D-galactopyranosyl)-3-O-(2-(N-(β-L-homofaconojirimycinyl))ethyl)-α-D-glucopyranoside],"inhibition of human α-1,3-fucosyltransferase V",[10],effective inhibitor
cytidin-5′-yl sialylethylphosphonate,pIC50,"rat recombinant α-2,3-ST",4.33
same,pIC50,"rat recombinant α-2,6-ST",3.47
